Measurements as given in publication PMC10454409, “Hybrids of Sterically Hindered Phenols and Diaryl Ureas: Synthesis, Switch from Antioxidant Activity to ROS Generation and Induction of Apoptosis” (International Journal of Molecular Sciences, 2023).
Like-named read-outs stand apart in the source and are kept apart here.

Tests used:
Format in all cases: cell-based
[1] = tested on: M-HeLa cells (human cervix epithelioid carcinoma); assay: MTT cytotoxicity test, M-HeLa; conditions: Homo sapiens, M-HeLa; MTT test; 24 h incubation per text, 48 h per method
From the text: (§1) For the experiments, we used tumor cell cultures M-HeLa clone 11 (epithelioid carcinoma of the cervix, subline HeLa., clone M-HeLa), HuTu 80 (human duodenal adenocarcinoma) and MCF7 (human breast adenocarcinoma (pleural fluid)) from the collection of the Institute of Cytology, Russian Academy of Sciences (St. Petersburg); human liver cells (Chang liver) from the collection of the Research Institute of Virology at the Russian Academy of Medical Sciences (Moscow); and SH-SY5Y (neuroblastoma)from the Laboratory of Tumor Cell Genetics at the Scientific Research Institute of Carcinogenesis N.N. Blokhin National Medical Research Center of Oncology.
(§2) The cytotoxic effect on cells was determined using the colorimetric method of cell proliferation—the MTT test. NADP-H-dependent cellular oxidoreductase enzymes can, under certain conditions, reflect the number of viable cells. These enzymes are able to reduce the tetrazolium dye (MTT)-3-(4,5-dimethylthiazol-2-yl)-2,5-diphenyl-tetrazolium bromide to insoluble blue-violet formazan, which crystallizes inside the cell. The amount of formazan formed is proportional to the number of cells with active metabolism.
(§3) Cells were seeded on a 96-well Nunc plate at a concentration of 5 × 10^3 cells per well in a volume of 100 μL of medium and cultured in a CO2 incubator at 37 °C until a monolayer was formed. […] After 48 h, the nutrient medium was removed from the plates and 100 µL of the nutrient medium without serum with MTT at a concentration of 0.5 mg/mL was added and incubated for 4 h at 37 °C. Formazan crystals were […] 100 µL of DMSO in each well. Optical density was recorded at 540 nm on an in vitro logic microplate reader (Russia). The experiments for all compounds were repeated in triplicate.
(§4) IC50 values were estimated using the Quest Graph IC50 Calculator (AAT Bioquest, Inc., Sunnyvale, CA, USA) (Version 2022) (accessed on 25 June 2022).

[2] = tested on: MCF-7 cells (human breast adenocarcinoma); assay: MTT cytotoxicity test, MCF-7; conditions: Homo sapiens, MCF7, MTT test; 24 h incubation per text, 48 h per method
Experimental: as §2
Formazan crystals were added to 100 µL of DMSO in each well. Optical density was recorded at 540 nm on an in vitro logic microplate reader (Russia). The experiments for all compounds were repeated in triplicate.

[3] = tested on: HuTu 80 cells (human duodenal adenocarcinoma); assay: MTT cytotoxicity test, HuTu 80; conditions: Homo sapiens
From the text: as §1, §2, §3, §4

[4] = tested on: SH-SY5Y cells (neuroblastoma); assay: MTT cytotoxicity test, SH-SY5Y; conditions: Homo sapiens, SH-SY5Y; MTT test; 24 h incubation per text, 48 h per method
From the text: as §1, §2, §3, §4

[5] = HuTu80, read-out: IC50, HuTu 80
[6] = HuTu80, MTT test, 24 h incubation per text, 48 h per method, read-out: IC50, HuTu 80

Measured: IC50

COP(=O)(OC)C(c1cc(C(C)(C)C)c(O)c(C(C)(C)C)c1)c1ccc(NC(=S)Nc2ccccc2)nc1N (centres unmarked) [18a]
> 70 µM: [1] | [2] | [3]; [5] | [4]

Cc1ccc(NC(=O)Nc2ccc(C(c3cc(C(C)(C)C)c(O)c(C(C)(C)C)c3)P(=O)(Oc3ccccc3)Oc3ccccc3)c(NC(=O)Nc3ccc(C)cc3)c2)cc1 (centres unmarked) [14d]
> 70 µM: [1] | [2] | [3]; [5] | [4]

CC(C)(C)c1cc(C(c2ccc(NC(=O)Nc3ccc([N+](=O)[O-])cc3)cc2NC(=O)Nc2ccc([N+](=O)[O-])cc2)P(=O)(Oc2ccccc2)Oc2ccccc2)cc(C(C)(C)C)c1O (centres unmarked) [17d]
> 70 µM: [1] | [2] | [3]; [5] | [4]

COc1ccc(NC(=O)Nc2ccc(C(c3cc(C(C)(C)C)c(O)c(C(C)(C)C)c3)P(=O)(OC)OC)c(NC(=O)Nc3ccc(OC)cc3)c2)cc1 (centres unmarked) [15a]
> 70 µM: [1] | [2] | [3]; [5] | [4]

CC(C)(C)c1cc(C(c2ccc(NC(=O)Nc3ccc(Cl)cc3)cc2NC(=O)Nc2ccc(Cl)cc2)P(=O)(Oc2ccccc2)Oc2ccccc2)cc(C(C)(C)C)c1O (centres unmarked) [16d]
> 70 µM: [1] | [2] | [3]; [5] | [4]

COP(=O)(OC)C(c1cc(C(C)(C)C)c(O)c(C(C)(C)C)c1)c1ccc(NC(=O)Nc2ccccc2)cc1NC(=O)Nc1ccccc1 (centres unmarked) [6a]
> 70 µM: [1] | [2] | [3]; [5] | [4]

COP(=O)(OC)C(c1cc(C(C)(C)C)c(O)c(C(C)(C)C)c1)c1ccc(NC(=O)Nc2ccccc2)nc1NC(=O)Nc1ccccc1 (centres unmarked) [5a]
> 70 µM: [1] | [2] | [3]; [5] | [4]

CC(C)(C)c1cc(C(c2ccc(NC(=S)Nc3ccccc3)cc2NC(=S)Nc2ccccc2)P(=O)(Oc2ccccc2)Oc2ccccc2)cc(C(C)(C)C)c1O (centres unmarked) [19d]
> 70 µM: [1] | [2] | [3]; [5] | [4]

COP(=O)(OC)C(c1cc(C(C)(C)C)c(O)c(C(C)(C)C)c1)c1ccc(NC(=O)Nc2cccc(C)c2)nc1NC(=O)Nc1cccc(C)c1 (centres unmarked) [8a]
> 70 µM: [1] | [2] | [3]; [5] | [4]

COc1ccc(NC(=O)Nc2ccc(C(c3cc(C(C)(C)C)c(O)c(C(C)(C)C)c3)P(=O)(OC(C)C)OC(C)C)c(NC(=O)Nc3ccc(OC)cc3)n2)cc1 (centres unmarked) [10c]
> 70 µM: [1] | [2] | [3]; [6] | [4]

COc1ccc(NC(=O)Nc2ccc(C(c3cc(C(C)(C)C)c(O)c(C(C)(C)C)c3)P(=O)(Oc3ccccc3)Oc3ccccc3)c(NC(=O)Nc3ccc(OC)cc3)n2)cc1 (centres unmarked) [10d]
> 70 µM: [1] | [2] | [3]; [5] | [4]

CC(C)OP(=O)(OC(C)C)C(c1cc(C(C)(C)C)c(O)c(C(C)(C)C)c1)c1ccc(NC(=O)Nc2ccccc2)nc1NC(=O)Nc1ccccc1 (centres unmarked) [5c]
> 70 µM: [1] | [2] | [3]; [6] | [4]

CC(C)(C)c1cc(C(c2ccc(NC(=O)Nc3ccc([N+](=O)[O-])cc3)nc2NC(=O)Nc2ccc([N+](=O)[O-])cc2)P(=O)(Oc2ccccc2)Oc2ccccc2)cc(C(C)(C)C)c1O (centres unmarked) [12d]
> 70 µM: [1] | [2] | [3]; [5] | [4]

CC(C)OP(=O)(OC(C)C)C(c1cc(C(C)(C)C)c(O)c(C(C)(C)C)c1)c1ccc(NC(=O)Nc2ccc([N+](=O)[O-])cc2)nc1NC(=O)Nc1ccc([N+](=O)[O-])cc1 (centres unmarked) [12c]
> 70 µM: [1] | [2] | [3]; [5] | [4]

COc1ccc(NC(=O)Nc2ccc(C(c3cc(C(C)(C)C)c(O)c(C(C)(C)C)c3)P(=O)(Oc3ccccc3)Oc3ccccc3)c(NC(=O)Nc3ccc(OC)cc3)c2)cc1 (centres unmarked) [15d]
> 70 µM: [1] | [2] | [3]; [5] | [4]

Cc1cccc(NC(=O)Nc2ccc(C(c3cc(C(C)(C)C)c(O)c(C(C)(C)C)c3)P(=O)(Oc3ccccc3)Oc3ccccc3)c(NC(=O)Nc3cccc(C)c3)n2)c1 (centres unmarked) [8d]
> 70 µM: [1] | [2] | [3]; [5] | [4]

COP(=O)(OC)C(c1cc(C(C)(C)C)c(O)c(C(C)(C)C)c1)c1ccc(NC(=O)Nc2ccc(C)cc2)cc1NC(=O)Nc1ccc(C)cc1 (centres unmarked) [14a]
> 70 µM: [1] | [2] | [3]; [5] | [4]

CCOP(=O)(OCC)C(c1cc(C(C)(C)C)c(O)c(C(C)(C)C)c1)c1ccc(NC(=O)Nc2ccc(C)cc2)nc1NC(=O)Nc1ccc(C)cc1 (centres unmarked) [9b]
> 70 µM: [1] | [2] | [3]; [5] | [4]

COc1ccc(NC(=O)Nc2ccc(C(c3cc(C(C)(C)C)c(O)c(C(C)(C)C)c3)P(=O)(OC)OC)c(NC(=O)Nc3ccc(OC)cc3)n2)cc1 (centres unmarked) [10a]
> 70 µM: [1] | [2] | [3]; [5] | [4]

CCOP(=O)(OCC)C(c1cc(C(C)(C)C)c(O)c(C(C)(C)C)c1)c1ccc(NC(=S)Nc2ccccc2)nc1N (centres unmarked) [18b]
> 70 µM: [1] | [2] | [3]; [5] | [4]

Cc1ccc(NC(=O)Nc2ccc(C(c3cc(C(C)(C)C)c(O)c(C(C)(C)C)c3)P(=O)(OC(C)C)OC(C)C)c(NC(=O)Nc3ccc(C)cc3)n2)cc1 (centres unmarked) [9c]
> 70 µM: [1] | [2] | [3]; [6] | [4]

COP(=O)(OC)C(c1cc(C(C)(C)C)c(O)c(C(C)(C)C)c1)c1ccc(NC(=O)Nc2ccc(C)cc2)nc1NC(=O)Nc1ccc(C)cc1 (centres unmarked) [9a]
> 70 µM: [1] | [2] | [3]; [5] | [4]

COP(=O)(OC)C(c1cc(C(C)(C)C)c(O)c(C(C)(C)C)c1)c1ccc(NC(=O)Nc2ccc(Cl)cc2)cc1NC(=O)Nc1ccc(Cl)cc1 (centres unmarked) [16a]
> 70 µM: [1] | [2] | [3]; [5] | [4]

CC(C)OP(=O)(OC(C)C)C(c1cc(C(C)(C)C)c(O)c(C(C)(C)C)c1)c1ccc(NC(=O)Nc2ccc(Cl)cc2)nc1NC(=O)Nc1ccc(Cl)cc1 (centres unmarked) [11c]
> 70 µM: [1] | [2] | [3]; [6] | [4]

CC(C)(C)c1cc(C(c2ccc(NC(=S)Nc3ccccc3)nc2N)P(=O)(Oc2ccccc2)Oc2ccccc2)cc(C(C)(C)C)c1O (centres unmarked) [18d]
> 70 µM: [1] | [2] | [3]; [5] | [4]

Cc1cccc(NC(=O)Nc2ccc(C(c3cc(C(C)(C)C)c(O)c(C(C)(C)C)c3)P(=O)(OC(C)C)OC(C)C)c(NC(=O)Nc3cccc(C)c3)n2)c1 (centres unmarked) [8c]
> 70 µM: [1] | [2] | [3]; [6] | [4]

CC(C)(C)c1cc(C(c2ccc(NC(=O)Nc3ccccc3)cc2NC(=O)Nc2ccccc2)P(=O)(Oc2ccccc2)Oc2ccccc2)cc(C(C)(C)C)c1O (centres unmarked) [6d]
> 70 µM: [1] | [2] | [3]; [5] | [4]

CC(C)(C)c1cc(C(c2ccc(NC(=O)Nc3ccc(Cl)cc3)nc2NC(=O)Nc2ccc(Cl)cc2)P(=O)(Oc2ccccc2)Oc2ccccc2)cc(C(C)(C)C)c1O (centres unmarked) [11d]
> 70 µM: [1] | [2] | [3]; [5] | [4]

CCOP(=O)(OCC)C(c1cc(C(C)(C)C)c(O)c(C(C)(C)C)c1)c1ccc(NC(=O)Nc2ccccc2)cc1NC(=O)Nc1ccccc1 (centres unmarked) [6b]
> 70 µM: [1] | [2] | [3]; [5] | [4]

CCOP(=O)(OCC)C(c1cc(C(C)(C)C)c(O)c(C(C)(C)C)c1)c1ccc(NC(=S)Nc2ccccc2)cc1NC(=S)Nc1ccccc1 (centres unmarked) [19b]
> 70 µM: [1] | [2] | [3]; [5] | [4]

Cc1cccc(NC(=O)Nc2ccc(C(c3cc(C(C)(C)C)c(O)c(C(C)(C)C)c3)P(=O)(Oc3ccccc3)Oc3ccccc3)c(NC(=O)Nc3cccc(C)c3)c2)c1 (centres unmarked) [13d]
> 70 µM: [1] | [2] | [3]; [5] | [4]

CC(C)(C)c1cc(C(c2ccc(NC(=O)Nc3ccccc3)nc2NC(=O)Nc2ccccc2)P(=O)(Oc2ccccc2)Oc2ccccc2)cc(C(C)(C)C)c1O (centres unmarked) [5d]
> 70 µM: [1] | [2] | [3]; [5] | [4]
